The values below are quoted from earlier work in US20020192671A1, “Method and system for predicting the biological activity, including toxicology and toxicity, of substances” (priority 2001, published 2002).

On to `CCOC(=O)C(C)(C)Oc1ccc(Cl)cc1` [Clofibrate], for which, in the data set on rodents, the “effect of chronic treatment in rodents” value is on record as “hepatomegaly, an increase in hepatic peroxisomes”. Also, in the data set on cytochrome P450 4A, the “effect on cytochrome P450 4A levels” value is “increase levels of cytochrome P450 4A”. Besides, the “effect on P450 4F levels” value in the data set with P450 4F is on record as “reduce the levels of P450 4F”.

Turning to `CC(=O)Nc1ccc(O)cc1` [APAP, acetaminophen], the “toxic effect at high non-therapeutic doses” value was “hepatic and renal failure”.
